Results published in BindingDB's records for doi:10.7270/Q2JQ0ZDS (Sanford-Burnham Center for Chemical Genomics, 2009).
“And” between values parts separate entries of the source, which are not always exact repeats. Equal entries are not always repeated. Structures can show the parent of a compound that is named as a salt.

Target: Intestinal-type alkaline phosphatase (Homo sapiens, UniProt P09923)
Assay: human IAP enzyme inhibitors, dose response, biochemical, luminescence (AID 1017)
Conditions: not given

Intestinal-type alkaline phosphatase, sequence (P09923 whole entry, looked up): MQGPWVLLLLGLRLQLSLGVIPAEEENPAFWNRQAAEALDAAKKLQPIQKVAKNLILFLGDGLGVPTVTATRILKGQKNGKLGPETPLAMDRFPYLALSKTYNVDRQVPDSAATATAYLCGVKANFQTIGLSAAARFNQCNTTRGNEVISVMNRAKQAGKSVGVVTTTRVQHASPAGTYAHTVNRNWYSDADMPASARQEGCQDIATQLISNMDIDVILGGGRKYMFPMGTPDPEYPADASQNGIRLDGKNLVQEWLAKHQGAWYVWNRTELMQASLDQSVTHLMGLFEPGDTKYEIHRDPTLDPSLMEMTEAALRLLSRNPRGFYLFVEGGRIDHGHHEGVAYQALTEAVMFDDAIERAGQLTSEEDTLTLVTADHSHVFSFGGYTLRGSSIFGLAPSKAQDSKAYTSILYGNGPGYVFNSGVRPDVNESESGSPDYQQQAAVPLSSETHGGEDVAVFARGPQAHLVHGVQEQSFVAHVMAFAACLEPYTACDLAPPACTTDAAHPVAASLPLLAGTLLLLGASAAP

Row | SMILES | IC50
1 | CCOC(=O)c1cc(-c2ccc3c(c2)OCCO3)n[nH]1 | > 100 µM
2 | COc1ccc(-c2[nH]nc3oc(=O)cc(C)c23)cc1 | > 100 µM
3 | COC(=O)c1cc(-c2ccc(Br)cc2)n[nH]1 | > 100 µM
4 | COC(=O)c1cc(-c2ccc(C)cc2C)n[nH]1 | > 100 µM
5 | COC(=O)c1cc(-c2ccc(Cl)cc2Cl)n[nH]1 | > 100 µM
6 | COc1ccc(-n2nnnc2SCC(=O)c2ccc(O)c(O)c2)cc1 [1-(3,4-dihydroxyphenyl)-2-(1-(4-methoxyphenyl)-1H-tetrazol-5-ylthio)ethanone] | 4.35 µM
7 | O=C(Cn1ccnc1)c1ccc(O)c(O)c1 [1-(3,4-dihydroxyphenyl)-2-(1-imidazolyl)ethanone;hydrochloride] | 30.2 µM and 18.5 µM
8 | CCc1nccn1CC(=O)c1ccc(O)c(O)c1 [1-(3,4-dihydroxyphenyl)-2-(2-ethyl-1-imidazolyl)ethanone;hydrochloride] | > 100 µM
9 | Cc1nc2ccccc2n1CC(=O)c1ccc(O)c(O)c1 [1-(3,4-dihydroxyphenyl)-2-(2-methyl-1-benzimidazolyl)ethanone;hydrochloride] | > 100 µM
10 | Cc1cc(C)nc(SCC(=O)c2ccc(O)c(O)c2)n1 [1-(3,4-dihydroxyphenyl)-2-(4,6-dimethylpyrimidin-2-ylthio)ethanone] | 49.5 µM
11 | Cc1cnn(CC(=O)c2ccc(O)c(O)c2)c1 [1-(3,4-dihydroxyphenyl)-2-(4-methyl-1H-pyrazol-1-yl)ethanone] | 53.3 µM
12 | O=C(CNc1ccncc1)c1ccc(O)c(O)c1 [1-(3,4-dihydroxyphenyl)-2-(4-pyridylamino)ethanone] | > 100 µM
13 | Cc1ccc(-n2nnnc2SCC(=O)c2ccc(O)c(O)c2)cc1 [1-(3,4-dihydroxyphenyl)-2-[1-(4-methylphenyl)tetrazol-5-yl]sulfanylethanone] | 3.36 µM
14 | C=CCn1c(SCC(=O)c2ccc(O)c(O)c2)nnc1-c1cccnc1 [1-(3,4-dihydroxyphenyl)-2-[(4-prop-2-enyl-5-pyridin-3-yl-1,2,4-triazol-3-yl)sulfanyl]ethanone] | 40.4 µM
15 | C=CCn1c(SCC(=O)c2ccc(O)c(O)c2)nnc1-c1cccc(OC)c1 [1-(3,4-dihydroxyphenyl)-2-[[5-(3-methoxyphenyl)-4-prop-2-enyl-1,2,4-triazol-3-yl]sulfanyl]ethanone] | 13.1 µM
16 | COc1ccc(OC)c(S(=O)(=O)Nc2cccnc2)c1 [2,5-Dimethoxy-N-(pyridin-3-yl)benzenesulfonamide] | > 100 µM
17 | O=C(Cn1cnc2ccccc21)c1ccc(O)c(O)c1 [2-(1-benzimidazolyl)-1-(3,4-dihydroxyphenyl)ethanone;hydrochloride] | 14.8 µM
18 | Cc1cc(C)nc(SCC(=O)c2ccc(O)cc2)n1 [2-(4,6-dimethylpyrimidin-2-ylthio)-1-(4-hydroxyphenyl)ethanone] | > 100 µM
19 | COc1ccc(C(=O)CSc2nc(C)cc(C)n2)cc1 [2-(4,6-dimethylpyrimidin-2-ylthio)-1-(4-methoxyphenyl)ethanone] | > 100 µM
20 | COc1ccc(C)cc1S(=O)(=O)Nc1cccnc1 [2-Methoxy-5-methyl-N-(pyridin-3-yl)benzenesulfonamide] | > 100 µM
21 | COc1ccc(C)cc1S(=O)(=O)Nc1ccc2ccccc2c1 [2-methoxy-5-methyl-N-(2-naphthalenyl)benzenesulfonamide] | > 100 µM
22 | Cn1nc(C(=O)O)cc1-c1ccc(F)cc1 [5-(4-fluorophenyl)-1-methyl-3-pyrazolecarboxylic acid] | > 100 µM
23 | Cn1nc(-c2ccc(F)cc2)cc1C(=O)O [5-(4-fluorophenyl)-2-methyl-3-pyrazolecarboxylic acid] | > 100 µM
24 | COc1cc(C)c(Cl)cc1S(=O)(=O)Nc1cccnc1 [5-chloro-2-methoxy-4-methyl-N-(pyridin-3-yl)benzenesulfonamide] | > 100 µM
25 | O=C(c1[nH]nc2c1COc1ccccc1-2)N1CCCC1 [(2,4-dihydrochromeno[4,3-c]pyrazol-3-yl)(pyrrolidin-1-yl)methanone] | > 100 µM
26 | COC(=O)c1cc(-c2ccc(OC)cc2)[nH]n1 [MLS-0091975.0001] | > 100 µM
27 | COC(=O)c1cc(-c2ccc3ccccc3c2)[nH]n1 [MLS-0111546.0001] | > 100 µM
28 | CCOC(=O)c1cc(-c2ccc(Cl)cc2)n[nH]1 [MLS-0111582.0001] | > 100 µM
29 | CCCCOc1ccc(-c2cc(C(=O)OC)[nH]n2)cc1 [methyl 3-(4-butoxyphenyl)-1H-pyrazole-5-carboxylate] | > 100 µM

Second part, the compound after the results:

Row | IC50 | SMILES
30 | 5.32 µM | O=C(CSc1nnc(-c2ccccc2)[nH]1)c1ccc(O)c(O)c1
31 | > 100 µM | O=C1c2ccccc2C(=O)C1c1nc2ccccc2[nH]1
32 | > 100 µM | O=C1c2c(Cl)c(Cl)c(Cl)c(Cl)c2C(=O)N1c1nnc(CCc2ccccc2)[nH]1
33 | > 100 µM | COc1ccc(OC)c(S(=O)(=O)Nc2cnc3ccccc3c2)c1
34 | 40.7 µM | O=C(O)c1ccc2c(c1)C(=O)N(c1nc(-c3cccnc3)n[nH]1)C2=O [1,3-dioxo-2-(5-pyridin-3-yl-1H-1,2,4-triazol-3-yl)isoindole-5-carboxylic acid]
35 | > 100 µM | Cn1c(SCC(=O)c2ccc(O)c(O)c2)nnc1-c1ccccc1 [1-(3,4-dihydroxyphenyl)-2-(4-methyl-5-phenyl-4H-1,2,4-triazol-3-ylthio)ethanone]
36 | 10.1 µM | C=CCn1c(SCC(=O)c2ccc(O)c(O)c2)nnc1-c1ccccc1 [1-(3,4-dihydroxyphenyl)-2-[(5-phenyl-4-prop-2-enyl-1,2,4-triazol-3-yl)sulfanyl]ethanone]
37 | > 3.13 µM | COc1ccccc1-c1nc(SCC(=O)c2ccc(O)c(O)c2)n[nH]1 [1-(3,4-dihydroxyphenyl)-2-[[5-(2-methoxyphenyl)-1H-1,2,4-triazol-3-yl]sulfanyl]ethanone]
38 | > 6.25 µM and 20.7 µM | C=CCn1c(SCC(=O)c2ccc(O)c(O)c2)nnc1-c1ccccc1OC [1-(3,4-dihydroxyphenyl)-2-[[5-(2-methoxyphenyl)-4-prop-2-enyl-1,2,4-triazol-3-yl]sulfanyl]ethanone]
39 | > 100 µM | O=C(CSc1nnc(-c2ccccc2)[nH]1)c1ccc(O)cc1O [1-[2,4-bis(oxidanyl)phenyl]-2-[(5-phenyl-1H-1,2,4-triazol-3-yl)sulfanyl]ethanone]
40 | > 100 µM | O=C(CSc1nnc(-c2ccccc2Cl)[nH]1)c1ccc(O)c(O)c1 [1-[3,4-bis(oxidanyl)phenyl]-2-[[5-(2-chlorophenyl)-1H-1,2,4-triazol-3-yl]sulfanyl]ethanone]
41 | > 100 µM | O=C1c2ccccc2C(=O)N1c1nncs1 [2-(1,3,4-thiadiazol-2-yl)isoindole-1,3-dione]
42 | > 100 µM | O=C1c2ccccc2C(=O)N1c1nnc[nH]1 [2-(1H-1,2,4-triazol-5-yl)isoindole-1,3-dione]
43 | 0.11 µM and 0.157 µM | Oc1c2c(c(O)n1-c1nnc(-c3ccccc3)[nH]1)CC=CC2 [2-(5-Phenyl-2H-[1,2,4]triazol-3-yl)-3a,4,7,7a-tetrahydro-isoindole-1,3-dione]
44 | > 100 µM | COc1ccc(C)cc1S(=O)(=O)Nc1cnc2ccccc2c1 [2-Methoxy-5-methyl-N-(quinolin-3-yl)benzenesulfonamide]
45 | > 100 µM | CCn1c(CSc2nc3ccccc3s2)nnc1SCC(=O)c1ccc(O)c(O)c1 [2-[[5-(1,3-benzothiazol-2-ylsulfanylmethyl)-4-ethyl-1,2,4-triazol-3-yl]sulfanyl]-1-(3,4-dihydroxyphenyl)ethanone]
46 | 43.4 µM | O=C(O)c1cc(-c2ccccc2Cl)n[nH]1 [3-(2-chlorophenyl)-1H-pyrazole-5-carboxylic acid]
47 | > 10 µM | O=C1c2c(Cl)c(Cl)c(Cl)c(Cl)c2C(=O)N1c1nnc[nH]1 [4,5,6,7-tetrachloro-2-(1H-1,2,4-triazol-5-yl)isoindole-1,3-dione]
48 | > 100 µM | CCOc1ccc(Cl)cc1S(=O)(=O)Nc1cccnc1 [5-chloro-2-ethoxy-N-(pyridin-3-yl)benzenesulfonamide]
49 | 9.95 µM | O=C1Nc2ccccc2C1C=NCCc1ccc(O)c(O)c1 (configuration not stated) [(3E)-3-[[2-(3,4-dihydroxyphenyl)ethylamino]methylene]oxindole]
50 | 0.539 µM and 0.922 µM | Oc1c2c(c(O)n1-c1nnc(Cc3ccccc3)[nH]1)CC=CC2 [MLS000100008]
51 | > 100 µM | Cc1cc(=O)oc2n[nH]c(-c3ccccc3)c12 [MLS-0013971.0001]
52 | > 100 µM | Oc1cc(-c2cccc3ccccc23)[nH]n1 [MLS-0067141.0001]
53 | > 100 µM | O=C1c2c(Cl)c(Cl)c(Cl)c(Cl)c2C(=O)N1c1nc(Cc2ccccc2)n[nH]1 [MLS-0146263.0001]
54 | > 100 µM | COc1ccc2c(c1OC)C(=O)N(c1nnc(SC)[nH]1)C2=O [MLS-0146265.0001]
55 | 1.27 µM | CCc1nnc(SCC(=O)c2ccc(O)c(O)c2)[nH]1 [MLS-0315685.0001]
56 | > 100 µM | COC(=O)c1cc(-c2ccccc2)n[nH]1 [methyl 3-phenyl-1H-pyrazole-5-carboxylate]

Same assay, conditions: inactive by the depositor's call

Row | SMILES | IC50 [µM]
57 | CCn1c(SCC(=O)c2ccc(O)c(O)c2)nnc1-c1ccccc1 [1-(3,4-Dihydroxy-phenyl)-2-(4-ethyl-5-phenyl-4H-[1,2,4]triazol-3-ylsulfanyl)-ethanone] | 32.8
